{"source": "BindingDB's records for doi:10.1074/jbc.M113.537704", "about": "(Icahn School Of Medicine At Mount Sinai, 2014)", "key": {"[1]": {"biological_target": "EEF1AKMT4-ECE2 readthrough transcript protein (Homo sapiens, UniProt P0DPD8)", "sequence (P0DPD8 whole entry)": "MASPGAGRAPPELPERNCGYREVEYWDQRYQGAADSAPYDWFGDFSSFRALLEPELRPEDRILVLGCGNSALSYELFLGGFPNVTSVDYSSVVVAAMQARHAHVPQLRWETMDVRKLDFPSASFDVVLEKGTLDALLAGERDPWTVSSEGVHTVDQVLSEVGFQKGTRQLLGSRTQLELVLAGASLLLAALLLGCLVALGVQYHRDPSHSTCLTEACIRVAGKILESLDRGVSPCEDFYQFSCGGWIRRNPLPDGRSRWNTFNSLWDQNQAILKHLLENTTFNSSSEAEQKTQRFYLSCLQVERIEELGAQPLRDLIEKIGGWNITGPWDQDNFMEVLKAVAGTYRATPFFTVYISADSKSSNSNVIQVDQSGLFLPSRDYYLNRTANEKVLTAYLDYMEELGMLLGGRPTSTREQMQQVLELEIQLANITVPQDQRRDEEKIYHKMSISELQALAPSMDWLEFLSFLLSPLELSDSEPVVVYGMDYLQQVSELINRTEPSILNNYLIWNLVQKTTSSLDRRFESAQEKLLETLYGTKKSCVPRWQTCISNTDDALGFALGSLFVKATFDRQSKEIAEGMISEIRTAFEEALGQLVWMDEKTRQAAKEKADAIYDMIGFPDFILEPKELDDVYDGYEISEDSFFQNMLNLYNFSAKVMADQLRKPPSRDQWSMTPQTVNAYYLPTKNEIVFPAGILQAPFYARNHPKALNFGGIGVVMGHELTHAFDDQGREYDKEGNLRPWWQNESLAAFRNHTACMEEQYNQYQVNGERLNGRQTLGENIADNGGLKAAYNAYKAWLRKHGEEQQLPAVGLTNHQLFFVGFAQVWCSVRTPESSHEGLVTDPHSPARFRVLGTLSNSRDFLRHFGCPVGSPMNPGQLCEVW", "assay": "Enzyme Activity Assay", "conditions": "pH 5.5", "procedure": "(§1) Recombinant ECE2 (32.5 ng) with a specific activity of 12 pmol/min/μg protein was generated as described previously. Secreted soluble recombinant ECE1 (30 ng) with a specific activity of 750 pmol/min/μg protein was generated and purified using a protocol similar to that used for ECE2. Solubilized midbrain membranes (10 μg) from wildtype or ECE2 knock-out mice were prepared as described. Enzymatic activity, in the absence or presence of the ECE2 inhibitor S136492 or the ECE1 inhibitor SM19712, was assayed using the synthetic quenched fluorescent substrate McaBk2 (10 μM) at 37 °C with either 0.2 M sodium acetate buffer, pH 5.5, or 50 mM Tris-Cl buffer, pH 7.4, as described previously [Gagnidze et al., J. Med. Chem., 51:3378-3387; Ouimet et al., J. Biol. Chem., 285:34390-34400]."}, "[2]": {"biological_target": "T1, Endothelin-converting enzyme 1 (Homo sapiens, UniProt P42892)", "T1 sequence (P42892 whole entry)": "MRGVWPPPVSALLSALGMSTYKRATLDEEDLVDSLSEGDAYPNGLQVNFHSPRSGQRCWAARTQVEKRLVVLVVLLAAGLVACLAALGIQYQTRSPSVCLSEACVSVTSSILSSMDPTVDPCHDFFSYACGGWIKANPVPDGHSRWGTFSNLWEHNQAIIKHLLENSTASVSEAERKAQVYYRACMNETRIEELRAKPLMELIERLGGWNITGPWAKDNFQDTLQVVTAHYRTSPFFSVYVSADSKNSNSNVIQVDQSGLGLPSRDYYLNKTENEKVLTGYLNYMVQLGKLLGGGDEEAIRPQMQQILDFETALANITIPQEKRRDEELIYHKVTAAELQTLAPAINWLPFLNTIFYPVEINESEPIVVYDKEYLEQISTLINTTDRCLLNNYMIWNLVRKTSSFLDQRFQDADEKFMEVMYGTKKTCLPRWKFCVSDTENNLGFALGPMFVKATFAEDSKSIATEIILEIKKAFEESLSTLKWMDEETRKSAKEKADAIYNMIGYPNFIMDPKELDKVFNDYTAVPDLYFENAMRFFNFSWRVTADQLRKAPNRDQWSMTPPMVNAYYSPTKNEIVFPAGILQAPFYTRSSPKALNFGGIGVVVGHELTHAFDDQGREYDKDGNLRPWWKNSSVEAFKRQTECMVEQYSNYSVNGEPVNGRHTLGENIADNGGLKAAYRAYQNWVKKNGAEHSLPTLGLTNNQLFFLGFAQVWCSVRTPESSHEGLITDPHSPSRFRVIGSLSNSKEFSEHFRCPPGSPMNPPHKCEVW", "assay": "Enzyme Activity Assay", "procedure": "as §1"}}, "data": [{"smiles": "Oc1ccccc1/C=C\\c1ccc2ccccc2n1", "note": "[2-(2-(quinolin-2-yl)vinyl)phenol]", "values": [{"measurement": "IC50", "setting": "[1]", "value": 1600, "unit": "nM"}, {"measurement": "IC50", "setting": "[2]; pH 5.5", "value": "> 100000", "unit": "nM"}, {"measurement": "IC50", "setting": "[2]; pH 7.4", "value": "> 100000", "unit": "nM"}]}, {"smiles": "Cc1[nH]nc(NC(=O)NS(=O)(=O)c2ccc(Cl)cc2)c1C#N", "note": "[SM19712]", "values": [{"measurement": "IC50", "setting": "[1]", "value": 5, "unit": "nM"}, {"measurement": "IC50", "setting": "[2]; pH 5.5", "value": "> 100000", "unit": "nM"}, {"measurement": "IC50", "setting": "[2]; pH 7.4", "value": 1100, "unit": "nM"}]}]}
